Measured values from patent US20260209260A1, “VECTORIZED NHC IRIDIUM(III) COMPLEXES AND USE THEREOF IN PHOTODYNAMIC THERAPY AND/OR DIAGNOSTIC” (CENTRE NATIONAL DE LA RECHERCHE SCIENTIFIQUE, priority 2022, published 2026).
Values joined by “and” are separate entries in the source; they are usually repeats but may differ in a detail not shown here. Equal values may be shown once. Read-outs that look alike come from different tables or passages of the source.

Tests used:
[1] = system: cancer cells (all tumor cell lines tested); experiment: Cell viability assay (MTT), summary over the cancer cell lines tested; format: cell-based, Human
Description: (§1) Cells were grown in humidified incubators at 37° C. in 5% CO2. Murine MC3T3 osteoblast and NIH-3T3 fibroblast cells-used as non-tumor cell models-were cultured in a-MEM medium and DMEM medium supplemented with 10% fetal bovine serum (FBS) and 1% Penicillin/Streptomycin (P/S) antibiotics, respectively. Human T24 bladder, MGHU3 bladder, Scaber bladder, A549 lung, MCF7 breast, MiaPaCa2 pancreas cancer cells were cultured in DMEM medium supplemented with 10% FBS and 1% P/S antibiotics. […] Human Hela cervix and HepG2 liver cancer cells were cultured EMEM medium supplemented with 10% FBS and 1% P/S antibiotics.
(§2) MTT reagent (3-(4,5-dimethylthiazol-2-yl)-2,5-diphenyltetrazolium bromide) was used to determine cell death as originally described by Mosmann. Briefly, cells were seeded from 5,000 to 10,000 cells/well in 24-well plates (1 mL) depending on the cell type and allowed to attach overnight. The complexes were prepared in DMSO. The concentration of the complexes was calculated based on the elemental composition of the complexes determined by the elemental analyses. All cell viability experiments were carried out with a fixed concentration of 0.1% (v/v) DMSO. After 72 h of treatment, cells were incubated at 37° C. and 5% CO2 with 25 μL of MTT solution (5 mg/ml; Sigma-Aldrich) in 24-well plates for 3 to 4 h. After solubilization with 500 μL of DMSO, formazan was quantified spectrophotometrically with a microplate reader at 570 nm absorbance (ClarioSTAR, BMG LabTech). […] All the results were calculated from data obtained in at least three independent experiments performed in triplicate.
(§3) Two sets of experiments were conducted in parallel for each complex to be studied:
(§4) 1. The cells were incubated with the different complexes (in the dark) for 72 h.
(§5) 2. The cells were incubated for 8 h with the different complexes (in the dark), then irradiated for 10 min, followed by an incubation in the dark up to 72 h.

[2] = system: non-tumor cells (NIH-3T3 and MC3T3); experiment: Cell viability assay (MTT), summary over the non-tumor models; format: cell-based, Murine; conditions: for GI50: blue light 458 nm, read-out: GI50 mean over non-tumor models, irradiated
Description: as §1, §2, §3, §4, §5

[3] = system: DU-145 prostate cancer cells (PSMA-negative); experiment: Cell viability assay (MTT), dark and blue light; format: cell-based, Human; conditions: for Photosensitizing index (PI): DU145, dark vs blue light; for SI (vs MC3T3) DU145 Blue / SI (vs NIH-3T3) DU145 Blue: blue light 458 nm
Summary of the method: (§6)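 Absorbance of MTT formazan at 570 nm gives viability after 72 h exposure to the complexes in 0.1% (v/v) DMSO. Irradiated wells got 10 min of 458 nm light after 8 h of dark incubation.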

[4] = system: PC-3 prostate cancer cells (PSMA-negative); experiment: Cell viability assay (MTT), dark and blue light; format: cell-based, Human; conditions: for Photosensitizing index (PI): PC3, dark vs blue light; for SI (vs NIH-3T3) PC-3 Blue / SI (vs MC3T3) PC-3 Blue: blue light 458 nm
Summary of the method: as §6

[5] = Singlet oxygen (1O2) production, ABDA indicator, blue LED 458 nm; conditions: for consumption of ABDA (1O2 production): 4.5 mWcm^−2; for depletion of the ABDA absorbance at 380 nm (1O2 production): 4.5 mWcm^−2, 5-45 min, PBS pH 7.4
Description: The detection of […] generation of iridium complexes was measured with 9,10-anthracenediyl-bis(methylene)dimalonic acid (ABDA) as an ^1O2 indicator and Ru(bpy)3Cl2 as a standard according to a modified reported method. Experiments were conducted using ABDA (50 μM) in phosphate buffered solution (PBS, pH 7.4), the respective iridium complex, i.e. (I-e), (I-g), (I-h), (I-j), (II-e), (II-g), (II-h), (II-j), (III-i), (III-j), (III-k), (III-h), (IV-i), (IV-j), (IV-k), (IV-h) and Ru(bpy)3Cl2 (5 μM) in a mixture of H2O/CH3CN (50/50) with a ratio ABDA/complex of […] and a final volume of 3 mL. ABDA oxidation was monitored by UV-vis spectrophotometry. The samples were irradiated with a blue custom-made LED plate (458 nm, 4.5 mWcm^−2). During irradiation UV-vis absorption spectra were recorded at 5, 10, 15, 20, 30 and 45 min. The ^1O2 generation was followed by monitoring the absorption spectral change at 380 nm of ABDA versus time.

[6] = system: MiaPaCa2 pancreas cancer cells; experiment: Cell viability assay (MTT), dark and blue light; format: cell-based, Human
Summary of the method: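 MTT read-out at 570 nm after DMSO solubilization of formazan, 3–4 h MTT at 37 °C, 5% CO2. Treatment lasted 72 h, either fully in the dark or with 10 min irradiation after 8 h of dark incubation. Final DMSO fixed at 0.1% (v/v).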

[7] = system: MCF7 breast cancer cells; experiment: Cell viability assay (MTT), dark and blue light; format: cell-based, Human; conditions: for GI50: read-out: GI50
Summary of the method: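 Seeded cells attached overnight, were exposed to complexes for 8 h, received 10 min of 458 nm blue light (9.6 W LED array), then stayed in the dark until 72 h; parallel plates were kept dark throughout. MTT for 3 to 4 h, DMSO solubilization, absorbance at 570 nm.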

[8] = 8 h in the dark, blue light 458 nm 10 min, then dark up to 72 h, read-out: GI50 DU145 Blue
[9] = DU145, blue light, read-out: GI50
[10] = in the dark, 72 h, read-out: GI50 DU145 Dark
[11] = 8 h in the dark, blue light 458 nm 10 min, then dark up to 72 h, read-out: GI50 PC-3 Blue
[12] = PC3, blue light, read-out: GI50
[13] = in the dark, 72 h, read-out: GI50 PC-3 Dark

SMILES | selectivity for cancer cells over non-tumor cells, in words [1] | GI50 [2] [µM] | GI50 [3, 8] [µM] | GI50 [3, 9] [µM] | Photosensitizing index (PI) [3] | GI50 ([3]; DU145, dark, read-out: GI50) [µM] | SI (vs MC3T3) DU145 Blue [3] | SI (vs NIH-3T3) DU145 Blue [3] | SI (vs NIH-3T3) DU145 Dark [3] | GI50 [3, 10] [µM] | GI50 [4, 11] [µM] | GI50 [4, 12] [µM] | Photosensitizing index (PI) [4] | GI50 ([4]; PC3, dark, read-out: GI50) [µM] | SI (vs NIH-3T3) PC-3 Blue [4] | SI (vs MC3T3) PC-3 Dark ([4]; dark) | GI50 [4, 13] [µM] | consumption of ABDA (1O2 production) [5] | depletion of the ABDA absorbance at 380 nm (1O2 production) [5] | SI (vs MC3T3) DU145 Dark [3] | also measured
F[P-](F)(F)(F)(F)F.O=C(O)CC[C@H](NC(=O)N[C@@H](CCCCNC(=O)CCn1cc[n+]2[c]1[Ir-3]13([c]4ccccc4-c4sc5ccccc5[n+]41)([c]1ccccc1-c1sc4ccccc4[n+]13)[n+]1ccccc1-2)C(=O)O)C(=O)O [III-k] | most selective effects under irradiated conditions | 22.8 | 2.2 | 2.18 | 7.5 | 16.3 | 15.5 | 13.8 | >6.1 | 16.3 | 2.1 | 2.1 | 4.6 | 9.6 | 14.3 | 9.9 | 9.8 |  |  |  | 
F[P-](F)(F)(F)(F)F.O=C(O)CC[C@H](NC(=O)N[C@@H](CCCCNC(=O)CCn1cc[n+]2[c]1[Ir-3]13([c]4c(sc5ccccc45)-c4cccc[n+]41)([c]1c(sc4ccccc14)-c1cccc[n+]13)[n+]1ccccc1-2)C(=O)O)C(=O)O [III-j] |  |  | 1.4 | 1.35 | 151.9 | 205 | 9.3 | 8.0 |  | 205 |  | 1.94 | 30.0 | 58.2 |  | >4.3 | 58.2 | fast complete consumption of ABDA | fast depletion of the ABDA absorbance at 380 nm | >1.2 | SI (vs MC3T3) PC-3 Blue [4]: 6.6; SI (vs NIH-3T3) PC-3 Dark ([4]; dark): >1.7
F[P-](F)(F)(F)(F)F.O=C(NCCCn1cc[n+]2[c]1[Ir-3]13([c]4c(sc5ccccc45)-c4cccc[n+]41)([c]1c(sc4ccccc14)-c1cccc[n+]13)[n+]1ccccc1-2)[c-]1cccc1.[Fe+2].c1cc[cH-]c1 [IV-j] | most selective effects under irradiated conditions | 8.4 |  |  |  |  |  |  |  |  |  |  | 121.7 | 7.3 |  |  |  | fast complete consumption of ABDA | fast depletion of the ABDA absorbance at 380 nm |  | GI50 ([1]; blue light 458 nm, read-out: GI50 mean over cancer cells, irradiated): 0.228 µM; PI values, mean over cancer cells ([1]; dark vs blue light 458 nm): 39.8 fold; increase in cell toxicity in cancer cells compared to non-tumor models ([1]; irradiated conditions): 39 fold; Photosensitizing index (PI) ([6]; MiaPaCa2, dark vs blue light): 21.9; SI (vs MC3T3) ([6]; MiapaCa2, blue light): 24.4; SI (vs MC3T3) ([6]; MiapaCa2, dark): 4.7; SI (vs NIH-3T3) ([6]; MiapaCa2, dark): 17.9; mean PI value in NIH-3T3 and MC3T3 non-tumoral cells ([2]; dark vs blue light 458 nm): 2.8 fold; SI (vs MC3T3) ([4]; PC3, dark): 2.2; GI50 ([7]; MCF7, blue light): 0.72 µM and 0.42 µM; SI (vs NIH-3T3) ([7]; MCF7, dark): 9.5; Photosensitizing index (PI) ([7]; MCF7, dark vs blue light): 15.7; GI50 ([7]; MCF7, dark): 6.6 µM
F[P-](F)(F)(F)(F)F.O=C(O)CC[C@H](NC(=O)N[C@@H](CCCCNC(=O)CCn1cc[n+]2[c]1[Ir-3]13([c]4ccccc4-c4c5ccccc5cc[n+]41)([c]1ccccc1-c1c4ccccc4cc[n+]13)[n+]1ccccc1-2)C(=O)O)C(=O)O [III-h] | most selective effects under irradiated conditions | 22.8 | 1.41 | 1.41 | 18.5 | 26.1 | 5.9 |  | >3.8 | 26.1 | 0.68 | 0.68 | 31.2 | 21.2 | 28.0 |  | 21.2 |  | fast depletion of the ABDA absorbance at 380 nm | 2.0 | SI (vs MC3T3) PC-3 Blue [4]: 12.2
